Experimental data as given in US10023922B2, “Reporter of genomic methylation and uses thereof” (Whitehead Institute for Biomedical Research, priority 2015, dated 2018).

System: Gapdh and Dazl reporter constructs
Assay: In vitro methylation of reporter plasmids, checked by bisulfite conversion, PCR amplification and sequencing
Assay type: biochemical
Conditions: FIGS. 2A and 2B
Excerpt: Conversely, we were interested to assess whether a methylated and silent donor Snrpn promoter can be reactivated by means of demethylation acquired in vivo. For this we used the CpG methyltransferase M.SssI to in vitro methylate both Gapdh and Dazl reporter constructs.
Bisulfite conversion of DNA was established using the EpiTect Bisulfite Kit (Qiagen) following the manufacturer's instructions. The resulting modified DNA was amplified by first round of nested PCR, following a second round using loci specific PCR primers (see complete list of primers below). The first round of nested PCR was done as follows: 94° C. for 4 min; 55° C. for 2 min; 72° C. for 2 min; Repeat steps 1-3 1×; 94° C. for 1 min; 55° C. for 2 min; 72° C. for 2 min; Repeat steps 5-7 35×; 72° C. for 5 min; Hold 12° C. The second round of PCR was as followed: 95° C. for 4 min; 94° C. for 1 min; 55° C. for 2 min; 72° C. for 2 min; Repeat steps 2-4 35×; 72° C. for 5 min; Hold 12° C. The resulting amplified products were gel-purified, subcloned into A pCR2.1-TOPO-TA cloning vector (Life Technologies), and sequenced.

M.SssI: CpG methyltransferase used to in vitro methylate reporter constructs
methylation of CGI and Snrpn promoter regions of the treated plasmids: complete hypermethylation
